Patent publication US20100105610A1, “Methods of Inhibiting Tumor Cell Aggressiveness Using the Microenvironment of Human Embryonic Stem Cells” (CHILDREN'S MEMORIAL HOSPITAL, priority 2006, published 2010)

How the values were obtained:
Format in all cases: cell-based, human
[1] = system: Notch 1, 2 and 4; assay: Notch expression, Western blot in C8161 cells
From the text: Western blot analysis of C8161 cells 72 hrs following the administration of siRNA. […] Western blot analysis of Notch 1, 2 and 4 in C8161 cells treated with the Nodal inhibitor SB431542.

[2] = system: VE-Cadherin, Keratin 18; assay: Western blot of vasculogenic mimicry plasticity biomarkers in C8161 cells; conditions: C8161 cells on 3-D collagen I matrices for 6 days
Method: (A) Western blot analyses of Nodal, phosphorylated SMAD-2, total SMAD 2/3, and Actin in C8161 cells 48 hours after administration of either vehicle or an ALK 4/5/7 inhibitor (SB431542, 1 μM, 10 μM). […] (B) Western blot analyses of Nodal, Tyrosinase and Actin in C8161 cells 24 hours after the administration of either vehicle or different concentrations of ALK inhibitor while (C) is a Western analyses for VE-Cadherin, Keratin 18 and Actin in C8161 cells cultured on 3-D collagen I matrices for 6 days in the presence of vehicle or different concentrations of ALK inhibitor.

[3] = system: C8161 cells; assay: Vasculogenic mimicry of C8161 cells; conditions: C8161 cells treated with ALK 4/5/7 inhibitor
[4] = system: Nodal; assay: Nodal protein expression, Western blot
Method: (§1) Protein lysates were prepared and quantified as previously described in Hess et al., 2001, Cancer Res. 61:3250-3255. Equal amounts of protein were separated by SDS-polyacrylamide gel electrophoresis under reducing conditions, and the resolved proteins were transferred onto Immobilon-P membranes (Millipore Corp., Bedford, Mass.). Membranes were blocked in 1% TBS, 0.1% Tween 20 (TBS-T) and 5% dry milk powder or 3% gelatin (for Nodal Westerns). Blots were incubated with anti-Nodal or anti-Lefty antibodies (Polyclonal rabbit anti-Nodal (H-110) 1:500 Santa Cruz Biotechnology, Santa Cruz, Calif.; Polyclonal goat anti-Lefty 1:500 R&D Systems, Minneapolis, Minn.), washed in TBS-T, and incubated with the appropriate horseradish peroxidase-labeled secondary antibody. Secondary antibodies were detected by enhanced chemiluminescence (Super Signal; Pierce, Rockford, Ill.) and exposure to autoradiography film (Molecular Technologies, St Louis, Mo.). Nodal protein was detected as two major bands at ˜48 and ˜35 kDa representing precursor and pro-Nodal respectively. Nodal often appeared as multiple bands, likely due to degradation of protein modifications. All experiments were done at least three times.
Conditioned matrices were prepared using hESCs, melanocytes, myoepithelial cells, amniotic fluid derived stem cells, or trophoblast cells on growth factor-reduced Matrigel (14 mg/mL; BD Biosciences) as previously described. Postovit et al., 2006, Stem Cells 24: 501-505. In all cases, cells were 80-100% confluent during the conditioning of the matrix. Alternatively, hESC-derived Lefty protein was seeded into Matrigel prior to polymerization. Human melanoma (C8161) or breast carcinoma (MDA-MB-231) cells, 2.5×10^5 cells/6-well dish, were subsequently exposed to this preconditioned matrix for 3 to 4 days.
as §1, with “primary antibody (Table 2),” for “anti-Nodal or anti-Lefty antibodies (Polyclonal rabbit anti-Nodal (H-110) 1:500 Santa Cruz Biotechnology, Santa Cruz, Calif.; Polyclonal goat anti-Lefty 1:500 R&D Systems, Minneapolis, Minn.),”, “TBS-T or TBS-T containing 0.5M NaCl for the Nodal Westerns,” for “TBS-T,”, “Nodal often appeared as multiple bands, likely due to degradation of protein modifications. All experiments were done at least three times.” left out

[5] = system: C8161 cells; assay: Membrane Invasion Culture System (MICS) invasion assay; conditions: C8161 cells treated with ALK 4/5/7 inhibitor
From the text: Bars represent the mean, normalized, invasion indices±standard deviations.
The aggressiveness of tumor cells is correlated with their ability to invade through the extracellular matrix; thus, the effect of hESC microenvironments on melanoma cell invasion was investigated.
The Membrane Invasion Culture System (MICS) chamber is used to evaluate the degree of tumor cell invasion through matrices in vitro (both stimulated and unstimulated) as described previously.

[6] = system: H9 hESCs; assay: hESC pluripotency (Oct-3/4 and Nanog expression, colony morphology); conditions: Oct-3/4, Nanog
From the text: (A) An abundance of the Nodal inhibitor Lefty within the hESC conditioned matrices (CMTX). Lefty protein is absent in the C8161 cells within its own conditioned matrix (C8161+CMTX). (B) Immunofluorescence localization of FITC-conjugated anti Lefty Morpholinos (MO^LEFTY) in H9 hESC colonies on Matrigel. (C) Western blot analysis of Lefty protein in H9 hESCs treated with either vehicle (Control), MO^Control (MO Control), or MO^Lefty (MO Lefty). Actin is used as a loading control. (D) Real Time RT-PCR analysis of Oct-3/4 and Nanog expression in H9 hESCs treated with either vehicle (H9), MO^CONTROL (MO Control), or MO^LEFTY (MO Lefty). Gene levels were normalized using 18s and bars represent mean gene expression normalized to H9. (E) Real Time RT-PCR analysis of Nodal mRNA expression in C8161 cells cultured for 3 days on control (unconditioned) Matrigel, Matrigel conditioned by hESCs (H9 CMTX) or Matrigel conditioned by hESCs in which Lefty protein expression was […] with Lefty-specific Morpholinos (H9 CMTX MO Lefty). (F) Western blot analysis of Nodal protein in human metastatic melanoma (C8161) and breast carcinoma (MDA-MB-231) cells exposed for 3 days to either control (unconditioned) Matrigel or to Matrigel seeded with Lefty protein purified from hESCs (H9-derived Lefty). […]

[7] = system: Lefty; assay: Lefty knockdown in hESCs with FITC-tagged Morpholinos (microscopy, Western blot)
From the text: Cancer cells were also exposed to Matrigel conditioned by hESCs in which Lefty protein expression was knocked down with FITC-tagged Morpholino oligonucleotides specific for Lefty-A and Lefty-B (MO^LEFTY). […] The expression of Oct-3/4 and Nanog, representative of hESC pluripotency, was not affected during this time, and the morphology of the hESC colonies was not altered.
Nodal, and Lefty protein expression were inhibited using anti-sense Morpholino oligonucleotides (Gene Tools Inc., Philomath, Oreg.). The Morpholino sequences were selected based on manufacturer's recommendations (21-25 mer antisense). Fluoroscein (FITC)-conjugated control (5′-[…]-3′) [SEQ ID NO: 19], Nodal (5′-[…]-3′) [SEQ ID NO: 20], Lefty-A (5′-[…]-3′) [SEQ ID NO: 21], and Lefty-B (5′[…]-3′) [SEQ ID NO: 22]. Morpholinos (20 μM) were delivered using the scrape method. Topczewska et al., 2006. Cancer cells were sorted for FITC and were recovered for 1 day prior to experimentation.

[8] = system: C81-61 cells; assay: Soft agar colony formation, C81-61; conditions: C81-61 cell line
Method: (§2) An in vitro colony forming assay was used to analyze colony-forming ability of poorly aggressive C81-61 cells, aggressive C8161 cells, C8161 cells treated with MONodal and C8161 cells treated with MONodal and rescued with recombinant Nodal (100 ng/mL). The assay was conducted using 50,000 cells suspended in 0.35% agarose in RPMI containing 10% serum, which were plated into 6-well dishes on 0.5% agar in the same medium. Colonies grew, and pictures were taken at day 7. After 2 weeks, colonies were stained with Crystal Violet and counted.
(§3) Clonogenicity of cells are assessed as previously described. Hamburger, A. W., and Salmon, S. E., 1977, Science 197:461-463. Each parameter is tested in triplicate for clone formation in soft agar. Briefly, […] are plated in 60 mm Petri dishes in complete medium placed over the soft agar. On specific days after the cells are plated, phase contrast images of the colonies are taken using a Zeiss Axiovert 25 with an Hitachi HCV-20 color camera.

[9] = system: MDA-MB-231 cells; assay: Anchorage independent growth / soft agar colony formation, MDA-MB-231; conditions: 100 ng/mL
Method: as §3
(§4) Anchorage independent growth assays were conducted as previously described. Topczewska et al., 2006, Nat. Med. 12: 925-932.

[10] = system: C8161 cells; assay: Anchorage independent growth / soft agar colony formation, C8161; conditions: 100 ng/mL
Method: as §2, §3, §4

Q: Which results are given for `NC(=O)c1ccc(-c2nc(-c3ccc4c(c3)OCO4)c(-c3ccccn3)[nH]2)cc1` [SB431542]?
A: Notch expression [1]: relatively unaffected; expression of vasculogenic mimicry plasticity biomarkers [2]: reduction; vasculogenic mimicry [3]: abrogation; Nodal expression ([4]; C8161 cells, 1 μM, 10 μM, 48 hours): down-regulation; invasive ability [5]: reduction

Q: Which results are given for “MO^LEFTY: FITC-tagged Morpholino oligonucleotides specific for Lefty-A and Lefty-B (SEQ ID NO: 21, 22) (chain 1 GCCACATGGTGCTGCCCTGGG; chain 2 CTGCATGGTGCTGCCCTGGAGGA; all phosphorodiamidate morpholino (PMO); FITC (fluorescein) conjugated, position not given here)”?
A: stem cell differentiation [6]: did not induce stem cell differentiation; Lefty protein expression in hESCs ([7]; H9 hESCs, Western blot, for up to 3 days): efficiently knocked down; hESC colonies in which the fluorescently-tagged Morpholinos could be detected ([7]; microscopy of treated hESC colonies): over 75%

B1: recombinant Nodal: recombinant Nodal (R&D Systems) (protein, UniProt Q96S42 238-347, looked up)
Nodal homolog: HHLPDRSQLCRKVKFQVDFNLIGWGSWIIYPKQYNAYRCEGECPNPVGEEFHPTNHAYIQSLLKRYQPHRVPSTCCAPVKTKPLSMLYVDNGRVLLDHHKDMIVEECGCL
Q: How did the colony formation [8] turn out when B1 was run?
A: The colony formation was “did not induce colony formation”.

Q: What about the “rescue of inhibition of in vitro clonogenicity” value ([9]; MDA-MB-231 cells exposed to H9 CMTX) of the same molecule?
A: The value was “partially rescued”.

Q: What about the “rescue of inhibition of in vitro clonogenicity” value ([9]; MDA-MB-231 cells exposed to H9 Lefty-containing matrix) of the same molecule?
A: Its value is “completely rescued”.

Q: And the “rescue of inhibition of in vitro clonogenicity” value ([10]; C8161 cells exposed to H9 CMTX)?
A: Its value is “partially rescued”.

Q: What about the “rescue of inhibition of in vitro clonogenicity” value ([10]; C8161 cells exposed to H9 Lefty-containing matrix) of the same molecule?
A: The value was “completely rescued”.

Q: And the “rescue of reduced colony formation” value ([10]; C8161 cells treated with MONodal)?
A: The value was “rescued”.

B2: rLefty: recombinant Lefty-B (R&D Systems) (protein, UniProt O75610 77-366, looked up)
Left-right determination …: RFSQSFREVAGRFLALEASTHLLVFGMEQRLPPNSELVQAVLRLFQEPVPKAALHRHGRLSPRSARARVTVEWLRVRDDGSNRTSLIDSRLVSVHESGWKAFDVTEAVNFWQQLSRPRQPLLLQVSVQREHLGPLASGAHKLVRFASQGAPAGLGEPQLELHTLDLGDYGAQGDCDPEAPMTEGTRCCRQEMYIDLQGMKWAENWVLEPPGFLAYECVGTCRQPPEALAFKWPFLGPRQCIASETDSLPMIVSIKEGGRTRPQVVSLPNMRVQKCSCASDGALVPRRLQP
Q: How did the “dose needed to inhibit Nodal protein relative to hESC counterpart” value ([4]; C8161 cells) turn out when B2 was run?
A: Its value is “higher doses”.

Q: What about the Nodal expression ([4]; C8161 cells exposed 48 hrs to 0-1000 ng/mL) of the same molecule?
A: The Nodal expression was “reduces”.
